Where “and” joins values, the source holds several entries; their conditions need not be identical. Identical values can stand only once. Like-named read-outs stand apart in the source and are kept apart here.

This passage reports Kd results from publication PMC10303200 (ACS Central Science, 2023).

Experiment [1] deals with T1, DC-SIGN CRD (Homo sapiens, UniProt Q9NNX6).
T1 sequence (Q9NNX6 250-404): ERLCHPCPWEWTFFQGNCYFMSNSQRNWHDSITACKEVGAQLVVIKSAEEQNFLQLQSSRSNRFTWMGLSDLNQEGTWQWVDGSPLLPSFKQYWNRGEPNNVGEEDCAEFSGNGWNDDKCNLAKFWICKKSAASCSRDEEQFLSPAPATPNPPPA
In words: direct nMS affinity measurement. In kind it is binding. The arrangement: The carbohydrate recognition domain (CRD) of DC-SIGN (residues 250–404, MW 17 794 Da); made in house. Conditions: glycans present as a mixture (G2, G5, G10, G14-G20); pH 7.4.

Experiment [2] has as its target T1, DC-SIGN CRD. In words: COIN-nMS affinity measurement. In kind it is binding. Further details: The carbohydrate recognition domain (CRD) of DC-SIGN (residues 250–404, MW 17 794 Da); made in house. Conditions: glycans present as a mixture (G2, G5, G10, G14-G20); average of six measurements; pH 7.4; read-out: Kd (COIN-nMS).
A further experiment addresses Siglec-7. Conditions: ITC; cited from earlier work.
Experiment [3] concerns the target RCA-I (Ricinus communis agglutinin) (Ricinus communis, UniProt P06750). In kind it is binding.
Experiment [4] concerns the target T2, GAL-3C (Homo sapiens, UniProt P17931). Briefly: COIN-nMS (slow mixing in nanoESI emitter, fit of eq 12) at one glycan concentration, 200 mM ammonium acetate, pH 6.9, 25 °C. Conditions: SD; read-out: Kd (COIN-nMS, individual experiments), Table S2. In kind it is binding. The arrangement: gene LGALS3; C-terminal carbohydrate recognition domain fragment, residues 107-250.

The target of experiment [5] is T2, GAL-3C. Briefly: COIN-nMS, global fit over several glycan concentrations, 200 mM ammonium acetate, pH 6.9, 25 °C. In kind it is binding. The arrangement: gene LGALS3; C-terminal carbohydrate recognition domain fragment, residues 107-250. Conditions: SD; read-out: Kd (COIN-nMS, global fit), Table S2.
The target of experiment [6] is T2, GAL-3C. Briefly: Direct native ESI-MS at known concentrations with single glycans, 200 mM ammonium acetate, pH 6.9, 25 °C. In kind it is binding. Further details: gene LGALS3; C-terminal carbohydrate recognition domain fragment, residues 107-250. Conditions: SD; read-out: Kd (nMS), Table S2.
For experiment [7], the target named is T2, GAL-3C. Briefly: Literature reference values quoted in the results table, conditions not restated. In kind it is binding. Further details: gene LGALS3; C-terminal carbohydrate recognition domain fragment, residues 107-250. Conditions: SD; read-out: Kd (Literature), Table S2; cited from earlier work.

T2 sequence (P17931 107-250): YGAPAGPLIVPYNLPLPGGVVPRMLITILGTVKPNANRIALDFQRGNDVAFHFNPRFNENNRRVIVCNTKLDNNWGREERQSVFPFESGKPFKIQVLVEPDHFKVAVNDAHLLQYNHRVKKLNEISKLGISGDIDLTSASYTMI

In the case of “α-D-Man-(1→2)-α-D-Man-(1→3)-[α-D-Man-(1→6)-[α-D-Man-(1→2)-α-D-Man-(1→3)]-α-D-Man [Glycan G15]”, the Kd is 390 ± 50 µM on DC-SIGN CRD [1] and 410 ± 40 µM at DC-SIGN CRD [2]. On to `CC(=O)N[C@H]1[C@H]([C@H](O)[C@H](O)CO)O[C@@](O[C@H](CO)[C@@H](O)[C@@H]2O[C@@](O[C@H]3[C@@H](O)[C@@H](CO)O[C@@H](O[C@H]4[C@H](O)[C@@H](O)C(O)O[C@@H]4CO)[C@@H]3O)(C(=O)O)C[C@H](O)[C@H]2NC(C)=O)(C(=O)O)C[C@@H]1O` (stereo partly drawn) [GD3, α-D-Neu5Ac-(2→8)-α-D-Neu5Ac-(2→3)-β-D-Gal-(1→4)-D-Glc], for which the Kd on Siglec-7 was 98 µM.

As for `CC(=O)N[C@H]1[C@H](O[C@H]2[C@H](O)[C@@H](NC(C)=O)C(O)O[C@@H]2CO)O[C@H](CO)[C@@H](O[C@@H]2O[C@H](CO[C@H]3O[C@H](CO)[C@@H](O)[C@H](O)[C@@H]3O[C@@H]3O[C@H](CO)[C@@H](O[C@@H]4O[C@H](CO)[C@H](O)[C@H](O)[C@H]4O)[C@H](O)[C@H]3NC(C)=O)[C@@H](O)[C@H](O[C@H]3O[C@H](CO)[C@@H](O)[C@H](O)[C@@H]3O[C@@H]3O[C@H](CO)[C@@H](O[C@@H]4O[C@H](CO)[C@H](O)[C@H](O)[C@H]4O)[C@H](O)[C@H]3NC(C)=O)[C@@H]2O)[C@@H]1O` (stereo partly drawn) [HexNAc4Hex5], the Kd in experiment [3] (read-out: Kd (Native); pH 6.9) was found to be 1.22 ± 0.03 µM. With `CC(=O)N[C@H]1[C@H](O[C@H]2[C@H](O)[C@@H](NC(C)=O)C(O)O[C@@H]2CO[C@@H]2O[C@@H](C)[C@@H](O)[C@@H](O)[C@@H]2O)O[C@H](CO)[C@@H](O[C@@H]2O[C@H](CO[C@H]3O[C@H](CO)[C@@H](O)[C@H](O)[C@@H]3O[C@@H]3O[C@H](CO)[C@@H](O[C@@H]4O[C@H](CO)[C@H](O)[C@H](O)[C@H]4O)[C@H](O)[C@H]3NC(C)=O)[C@@H](O)[C@H](O[C@H]3O[C@H](CO)[C@@H](O)[C@H](O)[C@@H]3O[C@@H]3O[C@H](CO)[C@@H](O[C@@H]4O[C@H](CO)[C@H](O)[C@H](O)[C@H]4O)[C@H](O)[C@H]3NC(C)=O)[C@@H]2O)[C@@H]1O` (stereo partly drawn) [HexNAc4Hex5Fuc1], the Kd in experiment [3] (pH 6.9; read-out: Kd (Native)) came to 1.4 ± 0.4 µM. As to `CC(=O)N[C@H]1C(O)O[C@H](CO)[C@@H](O[C@@H]2O[C@H](CO)[C@H](O)[C@H](O[C@H]3O[C@H](CO)[C@H](O)[C@H](O)[C@H]3O)[C@H]2O[C@@H]2O[C@@H](C)[C@@H](O)[C@@H](O)[C@@H]2O)[C@@H]1O` (stereo partly drawn) [G1, α-D-Gal-(1→3)-[α-L-Fuc(1→2)]-β-D-Gal(1→4)-D-GlcNAc], the Kd at GAL-3C [4] was 3.2 µM and 3.7 µM and 5.8 µM; on GAL-3C [5], 3.8 µM; on GAL-3C [6], 4.2 µM; at GAL-3C [7], 4.5 µM.

One may read the Kd as the free concentration of one partner at which half of the binding sites on the other are occupied at equilibrium, for simple one-to-one binding.
